Source: patent publication US20100240084A1, “USE OF THE PROTIEN MABA (FABG1) OF MYCOBACTERIUM TUBERCULOSIS FOR DESIGNING AND SCREENING ANTIBIOTICS” (priority 2002, published 2010)

Assays:
[1] = tested on: CC(=O)CC(=O)SCCNC(=O)CCNC(=O)[C@H](O)C(C)(C)COP(=O)(O)OP(=O)(O)OC[C@H]1O[C@@H](n2cnc3c(N)ncnc32)[C@H](O)[C@@H]1OP(=O)(O)O; assay: purified protein, by the assay type
[2] = tested on: CCCCCCCCCCC(=O)C(=O)SCCNC(=O)CCNC(=O)[C@H](O)C(C)(C)COP(=O)(O)OP(=O)(O)OC[C@H]1O[C@@H](n2cnc3c(N)ncnc32)[C@H](O)[C@@H]1OP(=O)(O)O; assay: purified protein, by the assay type
[3] = tested on: CCCCCCC(=O)C(=O)SCCNC(=O)CCNC(=O)[C@H](O)C(C)(C)COP(=O)(O)OP(=O)(O)OC[C@H]1O[C@@H](n2cnc3c(N)ncnc32)[C@H](O)[C@@H]1OP(=O)(O)O; assay: purified protein, by the assay type
[4] = aqueous solutions; Constantinides & Steim, 1985; cited from earlier work
InhA [5] = molecular target: T1, InhA (Mycobacterium tuberculosis, UniProt P9WGR1); details: cited from earlier work
protein MabA [6] = molecular target: T2, protein MabA (Mycobacterium tuberculosis, UniProt P9WGT3); assay: MabA enzymatic kinetics test (NADPH oxidation at 340 nm)
enoyl-reductase = details: Kikuchi et al., 1989, cited from earlier work
protein MabA [7] = molecular target: T2, protein MabA; assay: Inhibition of the β-ketoacyl reductase activity of MabA after preincubation with antibiotic, NADPH and MnCl2; assay type: biochemical
β-ketoacyl reductase = details: Kikuchi et al., 1989, cited from earlier work
InhA [8] = molecular target: T1, InhA; details: 100 μM ETH, in the presence of MnCl2 and NADH
[9] = other: section 4.1, 25° C., 80 mM sodium phosphate, NADPH Km at 460 μM acetoacetyl-CoA, β-ketoacyl-CoA Km at 100 μM NADPH

T2 sequence (P9WGT3 whole entry, looked up): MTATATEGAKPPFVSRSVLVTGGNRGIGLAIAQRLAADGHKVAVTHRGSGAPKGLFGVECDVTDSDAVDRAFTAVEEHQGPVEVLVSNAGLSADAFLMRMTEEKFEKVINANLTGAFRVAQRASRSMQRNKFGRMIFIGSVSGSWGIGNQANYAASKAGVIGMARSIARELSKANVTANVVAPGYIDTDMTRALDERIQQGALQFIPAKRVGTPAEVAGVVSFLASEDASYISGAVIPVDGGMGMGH
T1 sequence (P9WGR1 whole entry, looked up): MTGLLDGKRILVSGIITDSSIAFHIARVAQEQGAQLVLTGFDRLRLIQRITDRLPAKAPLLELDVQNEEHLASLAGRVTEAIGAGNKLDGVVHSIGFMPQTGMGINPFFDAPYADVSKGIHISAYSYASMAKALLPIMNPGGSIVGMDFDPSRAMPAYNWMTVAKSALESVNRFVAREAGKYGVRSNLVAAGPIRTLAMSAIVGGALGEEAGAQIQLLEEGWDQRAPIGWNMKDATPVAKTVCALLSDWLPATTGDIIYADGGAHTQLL

In the case of “protein MabA (Mycobacterium tuberculosis H37Rv)”, the Km ([1]; 25.0 °C) is reported as 1530 ± 81 µM, the kcat ([1]; 25.0 °C) is reported as 1.9 ± 0.0 s⁻¹ and the Km [1, 9] is reported as 1582 µM. The Km ([2]; 25.0 °C) was 8.3 ± 0.8 µM, the kcat ([2]; 25.0 °C) was 4.3 ± 0.2 s⁻¹ and the Km [2, 9] was 9 µM. For the same compound, the Km ([3]; 25.0 °C) was 70 ± 8 µM, the kcat ([3]; 25.0 °C) was 3.5 ± 0.0 s⁻¹ and the Km [3, 9] was 60 µM.
In the case of CCCCCCCCCCCCCCCCCC(=O)SCCNC(=O)CCNC(=O)[C@H](O)C(C)(C)COP(=O)(O)OP(=O)(O)OC[C@H]1O[C@@H](n2cnc3c(N)ncnc32)[C@H](O)[C@@H]1OP(=O)(O)O [stearoyl-CoA], the “CMC (critical micellar concentration)” value [4] is listed as 12 µM.
In the case of C/C=C/C(=O)SCCNC(=O)CCNC(=O)[C@H](O)C(C)(C)COP(=O)(O)OP(=O)(O)OC[C@H]1O[C@@H](n2cnc3c(N)ncnc32)[C@H](O)[C@@H]1OP(=O)(O)O [crotonoyl-CoA], the “activity of InhA in the presence of the 4-carbon substrate” value (InhA [5]; even at 8 mM, Quémard et al., 1995) is given as “no activity”.
For NADPH, the Km (protein MabA [6]; read-out: Km of MabA, section 4.1, 25° C., 80 mM sodium phosphate, NADPH Km at 460 μM acetoacetyl-CoA, β-ketoacyl-CoA Km at 100 μM NADPH) was 39 µM.
In the case of CCCCCCCCCCCCCCCC(=O)SCCNC(=O)CCNC(=O)[C@H](O)C(C)(C)COP(=O)(O)OP(=O)(O)OC[C@H]1O[C@@H](n2cnc3c(N)ncnc32)[C@H](O)[C@@H]1OP(=O)(O)O [palmitoyl-CoA], the “CMC (critical micellar concentration)” value [4] is given as 70 µM.
For NC(=O)C1=CN([C@@H]2O[C@H](COP(=O)(O)OP(=O)(O)OC[C@H]3O[C@@H](n4cnc5c(N)ncnc54)[C@H](O)[C@@H]3O)[C@@H](O)[C@H]2O)C=CC1 [NADH], the “MabA activity on substitution of NADPH by NADH” value (protein MabA [6]; NADH at the same concentration as NADPH in the kinetics test) is listed as “total loss of the activity” and the Km (InhA [5]; comparison value for InhA, read-out: Km of the protein InhA for its cofactor) is listed as 8 µM.
In the case of NNC(=O)c1ccncc1 [isoniazid, isonicotinic acid hydrazide], the Ki (enoyl-reductase) is listed as 5500 µM, the inhibition of enoyl-reductase (enoyl-reductase; isoniazid 2 mM) is listed as 26% and the “inhibition of the activity of MabA compared with the control without INH” value (protein MabA [7]; 100 μM INH, MabA 150 nM preincubated 2 hours with 100 μM NADPH and 1 μM MnCl2, acetoacetyl-CoA substrate) is listed as 44±3%. For the same compound, the inhibition at 2000 µM (protein MabA [7]; 2 mM isoniazid, MabA 150 nM preincubated 2 hours with 100 μM NADPH and 1 μM MnCl2, acetoacetyl-CoA substrate) was 62 ± 6%, the “effect of INH on the activity of MabA in the absence of MnCl2” value (protein MabA [7]; absence of MnCl2 in the reaction) was “non-significant reduction” and the Ki (β-ketoacyl reductase) was 353 µM. The “inhibition of β-ketoacyl reductase” value (β-ketoacyl reductase; isoniazid 2 mM) was 93%.
For CCc1cc(C(N)=S)ccn1 [ETH, ethionamide], the “effect on the activity of MabA” value (protein MabA [7]; 100 μM ETH, conditions of inhibition by INH, same result as InhA (activity unchanged)) was “same result” and the “effect on the activity of InhA” value (InhA [8]) was “unchanged”.
